target: T1, MAGL (Homo sapiens, UniProt Q99685); assay: In vitro competitive activity-based protein profiling, PC3 human cell membrane proteomes; type: biochemical; design: endogenous in cells; host or cells: PC3 human cells (membrane proteome); details: human PC3 membrane proteome
T1 sequence (Q99685 1-303): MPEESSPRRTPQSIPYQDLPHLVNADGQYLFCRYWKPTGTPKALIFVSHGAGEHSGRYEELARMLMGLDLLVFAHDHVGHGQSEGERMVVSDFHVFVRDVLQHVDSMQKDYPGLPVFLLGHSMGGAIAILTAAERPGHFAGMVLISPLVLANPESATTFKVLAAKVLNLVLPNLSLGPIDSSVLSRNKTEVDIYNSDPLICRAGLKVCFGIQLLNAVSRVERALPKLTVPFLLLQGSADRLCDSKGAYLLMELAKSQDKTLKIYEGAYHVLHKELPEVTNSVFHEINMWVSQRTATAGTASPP
Experimental: PC3 human cell membrane proteomes (50 μL, 2.0 mg/mL total protein concentration) were preincubated with varying concentrations of inhibitors at 37° C. After 30 min, the ABPP probe JW912-Bodipy (1.0 μL, 50 μM in DMSO) was added and the mixture was incubated for 30 min at room temperature. Reactions were quenched with SDS loading buffer (15 μL-4×) and run on SDS-PAGE. Following gel imaging, serine hydrolase activity was determined by measuring fluorescent intensity of gel bands corresponding to MAGL using ImageJ 1.43u software. Intensities were converted to percent enzyme activity by normalizing to DMSO controls. IC50 values were determined by fitting percent enzyme activities to a non-linear regression, 4-parameter, sigmoidal dose response function in Prism GraphPad.

Row | IC50 | Compound
1 | 0.013 µM | O=C(Nc1cnoc1)[C@H]1CC12CCN(C(=O)OC(C(F)(F)F)C(F)(F)F)CC2 (single isomer, unassigned) [Example 14]
2 | 1 µM | O=C(Nc1cnoc1)[C@@H]1CC12CCN(C(=O)OC(C(F)(F)F)C(F)(F)F)CC2 (single isomer, unassigned) [Example 15]
3 | 0.016 µM | O=C(NC(=O)C1CC12CCN(C(=O)OC(C(F)(F)F)C(F)(F)F)CC2)C1CCOCC1 (single isomer, unassigned) [Example 26, 1,1,1,3,3,3-Hexafluoropropan-2-yl (R or S)-1-((tetrahydro-2H-pyran-4-carbonyl)carbamoyl)-6-azaspiro[2.5]octane-6-carboxylate]
4 | 0.056 µM | O=C(NC(=O)C1CC12CCN(C(=O)OC(C(F)(F)F)C(F)(F)F)CC2)C1CCOCC1 (single isomer, unassigned) [Example 27, 1,1,1,3,3,3-Hexafluoropropan-2-yl (R or S)-1-((tetrahydro-2H-pyran-4-carbonyl)carbamoyl)-6-azaspiro[2.5]octane-6-carboxylate]
5 | 0.25 µM | CNC(=O)c1ccc(NC(=O)C2CC23CCN(C(=O)OC(C(F)(F)F)C(F)(F)F)CC3)cn1 (single isomer, unassigned) [Example 32, 1,1,1,3,3,3-Hexafluoropropan-2-yl (R or S)-1-((6-(methylcarbamoyl)pyridin-3-yl)carbamoyl)-6-azaspiro[2.5]octane-6-carboxylate]
6 | 0.0022 µM | CNC(=O)c1ccc(NC(=O)C2CC23CCN(C(=O)OC(C(F)(F)F)C(F)(F)F)CC3)cn1 (single isomer, unassigned) [Example 33, 1,1,1,3,3,3-Hexafluoropropan-2-yl (R or S)-1-((6-(methylcarbamoyl)pyridin-3-yl)carbamoyl)-6-azaspiro[2.5]octane-6-carboxylate]
7 | 0.0051 µM | COc1ccc(NC(=O)[C@@H]2CC23CCN(C(=O)OC(C(F)(F)F)C(F)(F)F)CC3)cn1 (single isomer, unassigned) [Example 36]
8 | 0.0011 µM | COc1ccc(NC(=O)[C@H]2CC23CCN(C(=O)OC(C(F)(F)F)C(F)(F)F)CC3)cn1 (single isomer, unassigned) [Example 37]
9 | 0.15 µM | Cc1ncc(NC(=O)C2CC23CCN(C(=O)OC(C(F)(F)F)C(F)(F)F)CC3)cn1 (single isomer, unassigned) [Example 102, 1,1,1,3,3,3-hexafluoropropan-2-yl (R or S)-1-((2-methylpyrimidin-5-yl)carbamoyl)-6-azaspiro[2.5]octane-6-carboxylate]
10 | 0.0033 µM | Cc1ncc(NC(=O)C2CC23CCN(C(=O)OC(C(F)(F)F)C(F)(F)F)CC3)cn1 (single isomer, unassigned) [Example 103, 1,1,1,3,3,3-hexafluoropropan-2-yl (R or S)-1-((2-methylpyrimidin-5-yl)carbamoyl)-6-azaspiro[2.5]octane-6-carboxylate]
11 | 0.1 µM | Cc1ccc(NC(=O)[C@@H]2CC23CCN(C(=O)OC(C(F)(F)F)C(F)(F)F)CC3)nn1 (single isomer, unassigned) [Example 105]
12 | 0.001 µM | Cc1ccc(NC(=O)[C@H]2CC23CCN(C(=O)OC(C(F)(F)F)C(F)(F)F)CC3)nn1 (single isomer, unassigned) [Example 106]
13 | 0.013 µM | O=C(Nc1ccnnc1)C1CC12CCN(C(=O)OC(C(F)(F)F)C(F)(F)F)CC2 (single isomer, unassigned) [Example 108, 1,1,1,3,3,3-hexafluoropropan-2-yl (R or S)-1-(pyridazin-4-ylcarbamoyl)-6-azaspiro[2.5]octane-6-carboxylate]
14 | 0.57 µM | O=C(Nc1ccnnc1)C1CC12CCN(C(=O)OC(C(F)(F)F)C(F)(F)F)CC2 (single isomer, unassigned) [Example 109, 1,1,1,3,3,3-hexafluoropropan-2-yl (R or S)-1-(pyridazin-4-ylcarbamoyl)-6-azaspiro[2.5]octane-6-carboxylate]
15 | 2.6 µM | CN1CCC(NC(=O)C2CC23CCN(C(=O)OC(C(F)(F)F)C(F)(F)F)CC3)CC1 (single isomer, unassigned) [Example 114, 1,1,1,3,3,3-hexafluoropropan-2-yl (R or S)-1-((1-methylpiperidin-4-yl)carbamoyl)-6-azaspiro[2.5]octane-6-carboxylate]
16 | 0.56 µM | CN1CCC(NC(=O)C2CC23CCN(C(=O)OC(C(F)(F)F)C(F)(F)F)CC3)CC1 (single isomer, unassigned) [Example 115, 1,1,1,3,3,3-hexafluoropropan-2-yl (R or S)-1-((1-methylpiperidin-4-yl)carbamoyl)-6-azaspiro[2.5]octane-6-carboxylate]
17 | 0.29 µM | O=C(NCC1CCOCC1)[C@@H]1CC12CCN(C(=O)OC(C(F)(F)F)C(F)(F)F)CC2 (single isomer, unassigned) [Example 118]
18 | 0.3 µM | O=C(OC(C(F)(F)F)C(F)(F)F)N1CCC2(CC1)CC2C(=O)N1CCOCC1 (single isomer, unassigned) [Example 120, 1,1,1,3,3,3-hexafluoropropan-2-yl (R or S)-1-(morpholine-4-carbonyl)-6-azaspiro[2.5]octane-6-carboxylate]
19 | 0.42 µM | O=C(OC(C(F)(F)F)C(F)(F)F)N1CCC2(CC1)CC2C(=O)N1CCOCC1 (single isomer, unassigned) [Example 121, 1,1,1,3,3,3-hexafluoropropan-2-yl (R or S)-1-(morpholine-4-carbonyl)-6-azaspiro[2.5]octane-6-carboxylate]
20 | 0.16 µM | N#CC1CCN(C(=O)C2CC23CCN(C(=O)OC(C(F)(F)F)C(F)(F)F)CC3)CC1 (single isomer, unassigned) [Example 123, 1,1,1,3,3,3-hexafluoropropan-2-yl (R or S)-1-(4-cyanopiperidine-1-carbonyl)-6-azaspiro[2.5]octane-6-carboxylate]
21 | 0.67 µM | N#CC1CCN(C(=O)C2CC23CCN(C(=O)OC(C(F)(F)F)C(F)(F)F)CC3)CC1 (single isomer, unassigned) [Example 124, 1,1,1,3,3,3-hexafluoropropan-2-yl (R or S)-1-(4-cyanopiperidine-1-carbonyl)-6-azaspiro[2.5]octane-6-carboxylate]
22 | 0.00091 µM | O=C(Nc1ccccc1)[C@H]1CC12CCN(C(=O)OC(C(F)(F)F)C(F)(F)F)CC2 (single isomer, unassigned) [Example 141]
23 | 0.13 µM | O=C(Nc1ccccc1)[C@@H]1CC12CCN(C(=O)OC(C(F)(F)F)C(F)(F)F)CC2 (single isomer, unassigned) [Example 142]

Row | Compound | IC50
24 | CP(C)(=O)c1ccc(NC(=O)C2CC23CCN(C(=O)OC(C(F)(F)F)C(F)(F)F)CC3)cn1 (single isomer, unassigned) [Example 21, 1,1,1,3,3,3-Hexafluoropropan-2-yl (R or S)-1-((6-(dimethylphosphoryl)pyridin-3-yl)carbamoyl)-6-azaspiro[2.5]octane-6-carboxylate] | 0.317 µM
25 | O=C(Nc1ccncc1)C1CC12CCN(C(=O)OC(C(F)(F)F)C(F)(F)F)CC2 (single isomer, unassigned) [Example 23, 1,1,1,3,3,3-Hexafluoropropan-2-yl (R or S)-1-(pyridin-4-ylcarbamoyl)-6-azaspiro[2.5]octane-6-carboxylate] | 0.2 µM
26 | O=C(Nc1ccc(-n2cccn2)nc1)C1CC12CCN(C(=O)OC(C(F)(F)F)C(F)(F)F)CC2 (single isomer, unassigned) [Example 30, 1,1,1,3,3,3-Hexafluoropropan-2-yl (R or S)-1-((6-(1H-pyrazol-1-yl)pyridin-3-yl)carbamoyl)-6-azaspiro[2.5]octane-6-carboxylate] | 0.39 µM
27 | Cc1cnc(NC(=O)C2CC23CCN(C(=O)OC(C(F)(F)F)C(F)(F)F)CC3)cn1 (single isomer, unassigned) [Example 111, 1,1,1,3,3,3-hexafluoropropan-2-yl (R or S)-1-((5-methylpyrazin-2-yl)carbamoyl)-6-azaspiro[2.5]octane-6-carboxylate] | 0.074 µM
28 | Cn1ccc(NC(=O)C2CC23CCN(C(=O)OC(C(F)(F)F)C(F)(F)F)CC3)n1 (single isomer, unassigned) [Example 126, 1,1,1,3,3,3-hexafluoropropan-2-yl (R or S)-1-((1-methyl-1H-pyrazol-3-yl)carbamoyl)-6-azaspiro[2.5]octane-6-carboxylate] | 0.23 µM
29 | CC1(NC(=O)C2CC23CCN(C(=O)OC(C(F)(F)F)C(F)(F)F)CC3)CCOCC1 (single isomer, unassigned) [Example 133, 1,1,1,3,3,3-hexafluoropropan-2-yl (R or S)-1-((4-methyltetrahydro-2H-pyran-4-yl)carbamoyl)-6-azaspiro[2.5]octane-6-carboxylate] | 1.6 µM
30 | Cn1nccc1NC(=O)C1CC12CCN(C(=O)OC(C(F)(F)F)C(F)(F)F)CC2 (single isomer, unassigned) [Example 136, 1,1,1,3,3,3-hexafluoropropan-2-yl (R or S)-1-((1-methyl-1H-pyrazol-5-yl)carbamoyl)-6-azaspiro[2.5]octane-6-carboxylate] | 0.34 µM
31 | O=C(Nc1nccs1)C1CC12CCN(C(=O)OC(C(F)(F)F)C(F)(F)F)CC2 (single isomer, unassigned) [Example 139, 1,1,1,3,3,3-hexafluoropropan-2-yl (R or S)-1-(thiazol-2-ylcarbamoyl)-6-azaspiro[2.5]octane-6-carboxylate] | 0.11 µM

— patent US20240018120A1, “MAGL INHIBITORS” (H. LUNDBECK A/S, priority 2020, published 2024)
